In paper PMC6207720, “Identification and antitumor activity of a novel inhibitor of the NIMA-related kinase NEK6” (Scientific Reports, 2018):

What was measured:
Assay type in all cases: biochemical
NEK2 = biological target: T1, NEK2 (Homo sapiens, UniProt P51955); experiment: Off-chip Mobility Shift Assay (MSA) profiling, NEK2; conditions: ATP approximating Km
T1 sequence (P51955 1-445): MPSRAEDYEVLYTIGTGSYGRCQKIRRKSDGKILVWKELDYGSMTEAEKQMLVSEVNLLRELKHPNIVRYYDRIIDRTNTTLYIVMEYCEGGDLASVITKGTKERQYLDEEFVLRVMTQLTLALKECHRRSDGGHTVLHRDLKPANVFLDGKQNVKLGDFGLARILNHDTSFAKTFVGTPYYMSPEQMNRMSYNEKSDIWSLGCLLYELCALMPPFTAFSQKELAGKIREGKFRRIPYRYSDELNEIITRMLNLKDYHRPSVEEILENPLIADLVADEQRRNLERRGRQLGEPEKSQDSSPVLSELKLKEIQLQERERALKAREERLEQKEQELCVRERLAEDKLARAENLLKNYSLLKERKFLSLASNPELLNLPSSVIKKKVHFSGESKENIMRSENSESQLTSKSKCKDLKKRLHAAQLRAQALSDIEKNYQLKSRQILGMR
Method: (§1) Therefore, we decided to evaluate the selectivity of compound 8 against a panel of NEK kinases at 10 µM, using the technique of Off-chip Mobility shift assay. This concentration was chosen according to the guidelines proposed by Knight and Shokat, since the probability of off-target effects increases dramatically above 10 µM[36]. Furthermore, ATP concentration was set to approximate the Km,ATP for each kinase, so that the resulting selectivity profile directly reflects the intrinsic affinities of the inhibitor[37]. […] A major consequence of this substitution may be the redistribution of surface charges at the flexible activation loop resulting in an altered electrostatic potential and ability of NEK6 kinase to interact with other molecules.
(§2) The inhibitory activity of compounds 8 and 21 on NEK6 was also verified with MSA technique (Off-chip Mobility shift assay) (CARNA Biosciences Study ID: CBS170097, CARNA Biosciences, Kobe). […] PKR Inhibitor was used as positive control. For profiling study against NEK kinases (i.e. NEK1, NEK2, NEK6, NEK7, NEK9) (CARNA Biosciences Study ID: CBS170098), 8 was tested at 10 μM and ATP concentration approximating Km for each kinase. Assay condition for kinases are available on “Kinase profiling book” downloading by www.carnabio.com (https://www.carnabio.com/output/pdf/ProfilingProfilingBook_en.pdf).

NEK6 = biological target: T2, NEK6 (Homo sapiens, UniProt Q9HC98); experiment: LANCE-Ultra NEK6 kinase assay; conditions: 100 µM ATP
T2 construct: purchased Carna 05-130
Method: The twenty-five compounds resulting from virtual screening were firstly tested for the ability to inhibit the enzymatic activity of NEK6 at a single concentration of 30 µM, using LANCE technology. Quercetin, able to inhibit a broad panel of kinase, was used as positive control of inhibition[12],[30]. This initial screening allowed the identification of two compounds determining >70% NEK6 inhibition at 30 µM, i.e. compound 8 (6-hydroxy-4-methyl-2-oxo-5-[(5-phenyl (2-furyl)) methylene] pyridine-3-carbonitrile), and 21 (6-amino-2-phenyl-5,7,9-triazatetracyclo[8.7.0.0^3,^8 0^11,^16]heptadeca-1(10),3(8),6,11,13,15 hexaene-4,17-dione) (Fig. 4). […] The possible binding mode of compound 8 in the ATP-binding site of NEK6 as well as nonbonded interactions across the complex interface are shown in Fig. 6. Compound 8 may use its phenyl ring and furyl ring to form hydrophobic Pi-alkyl interactions with Ala72 (strand β3), Ala125 (hinge region) and Val59 (strand β2) of the ATP binding site (Fig. 6B). […] This is particulary relevant when considering that C–H···O hydrogen bonds play an important role in the ligand-binding process[33]–[35].
Compounds (i.e. 1 to 25) (Molport, Riga, LV-1011, Latvia) were dissolved in DMSO 100% as 10 mM stock and stored at −20 C. Activity of the compounds as NEK6 inhibitors was tested using LANCE NEK6 Ultra Kinase Assays protocol (U-TRF #25 technical note, PerkinElmer, Monza, MB). Compounds were first tested at 30 µM and incubated with 4 nM NEK6 (Carna, Chuo-ku, Kobe, Japan, # 05-130), 50 nM ULight-p70 S6K Peptide (PerkinElmer # TRF0126) and 100 μM ATP (Sigma-Aldrich, Saint Louis, U.S.A, # A2383) at room temperature. Kinase reactions were terminated after 90 minutes by the addition of EDTA and the signal was read with the Enspire plate reader (PerkinElmer) in TR-FRET mode (excitation at 320 nm and emission at 665 nm) after 60 minutes. Inhibition of NEK6 activity was calculated as percentage with respect to the control sample (100% of activity). Quercetin was used as positive control (Molport). […] For each compound the dose inhibiting 50% of NEK6 activity (IC50) was calculated using the GraphPad Prism 5.0 Software (San Diego, CA, USA).

NEK7 = NEK7 (Homo sapiens, UniProt Q8TDX7); experiment: Off-chip Mobility Shift Assay (MSA) profiling, NEK7; conditions: ATP approximating Km
Method: as §1, §2

T2 sequence (Q9HC98 whole entry): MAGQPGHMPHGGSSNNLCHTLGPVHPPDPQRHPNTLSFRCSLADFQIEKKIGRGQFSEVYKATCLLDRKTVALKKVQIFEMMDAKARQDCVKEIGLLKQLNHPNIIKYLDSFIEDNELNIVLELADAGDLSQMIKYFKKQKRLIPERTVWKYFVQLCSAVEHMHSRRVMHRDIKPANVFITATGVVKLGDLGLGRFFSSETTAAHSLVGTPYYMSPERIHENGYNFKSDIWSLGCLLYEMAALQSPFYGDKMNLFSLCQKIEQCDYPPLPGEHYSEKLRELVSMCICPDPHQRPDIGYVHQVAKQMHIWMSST
Sequence of NEK7 (Q8TDX7 whole entry): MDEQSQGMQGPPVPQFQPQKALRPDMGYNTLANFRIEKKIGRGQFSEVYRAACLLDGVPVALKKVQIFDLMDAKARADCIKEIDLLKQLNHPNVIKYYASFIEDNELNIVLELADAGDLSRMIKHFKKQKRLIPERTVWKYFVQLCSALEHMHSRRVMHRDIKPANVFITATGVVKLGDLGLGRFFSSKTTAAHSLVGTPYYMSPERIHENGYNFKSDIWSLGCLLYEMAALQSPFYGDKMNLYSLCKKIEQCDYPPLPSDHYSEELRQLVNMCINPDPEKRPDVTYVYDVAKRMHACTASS

`CC1=C(C#N)C(O)=NC(=O)/C1=C\c1ccc(-c2ccccc2)o1` [Compound 8, (5Z)-2-hydroxy-4-methyl-6-oxo-5-[(5-phenylfuran-2-yl)methylidene]-5,6-dihydropyridine-3-carbonitrile] was tested, and the inhibition at 10 µM (NEK2) was ≤ 0%, the IC50 (NEK6; LANCE-Ultra, mean ± SEM of 4 independent experiments) was 3.4 ± 1.2 µM and the inhibition at 30 µM (NEK6; single concentration 30 µM, LANCE) was > 70%. The inhibition at 10 µM (NEK7) was ≤ 0%.
